# Assay results: article PMC8151276, “An Integrated Approach toward NanoBRET Tracers for Analysis of GPCR Ligand Engagement” (Molecules, 2021)
# Columns and labels:
# Assay type in all cases: binding
# FPR3 = target: T1, FPR3 (Homo sapiens, UniProt P25089); assay: NanoBRET screen HiBiT-FPR3 in HEK293
# T1 construct: purchased Promega (in-house HiBiT-GPCR construct library, NanoBRET)
# T1 sequence (P25089 1-353): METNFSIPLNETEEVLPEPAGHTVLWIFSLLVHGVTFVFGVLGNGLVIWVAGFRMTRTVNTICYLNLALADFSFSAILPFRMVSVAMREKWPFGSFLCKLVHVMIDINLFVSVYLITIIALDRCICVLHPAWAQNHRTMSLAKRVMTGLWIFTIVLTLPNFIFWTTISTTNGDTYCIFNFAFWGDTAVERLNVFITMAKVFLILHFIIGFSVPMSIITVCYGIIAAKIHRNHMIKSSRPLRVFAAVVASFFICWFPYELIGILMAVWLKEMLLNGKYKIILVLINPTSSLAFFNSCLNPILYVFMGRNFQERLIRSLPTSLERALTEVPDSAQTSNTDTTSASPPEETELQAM
# Experimental: (§1) Each tracer candidate was screened across the entire library of HiBiT-GPCR constructs using NanoBRET as the detection modality. As depicted in Figure 4A, the specificity of interactions was evaluated through decrease in BRET due to competitive displacement of a bound tracer by excess parental compound. Each tracer was analyzed for binding to each HiBiT-GPCR fusion in the absence and in the presence of competing parental compound. Briefly, HEK293 cells were transfected with HiBiT-GPCR constructs diluted into promoterless DNA to reduce expression and maximize translocation to the cell surface. Each tracer candidate was then screened at concentrations of 1 μM and 0.1 μM across cells expressing these fusions. Cells were treated for 1.5 h with tracer either alone or in the presence of 20 μM competing parental compound (i.e., control). BRET was measured upon addition of purified LgBiT and subsequent complementation with HiBiT genetically fused to a GPCR. The specificity of interactions was assessed through a decrease in BRET signal due to competitive displacement of the bound tracer. To further gauge the robustness of these interactions, the fold response over the control (i.e., BRETtracer/BRETcontrol) was calculated. We chose a 1.5-fold response, which translates to ≥7-fold signal over noise as the minimal threshold required to score an interaction as positive. […]. Below we highlight the screening results obtained for our exemplary fluorescent tracers based on Clozapine, Amitriptyline and AZD1283.
# (§2) HiBiT-GPCR DNA constructs were diluted in 10 mM Tris pH 8 to a final concentration of 0.01 μg/μL, arrayed in 96-well plates and stored at −20 °C. For transfection, HEK293 cells were suspended in Opti-MEM (without phenol red) supplemented with 2% fetal bovine serum (Seradigm) and 100 units/mL penicillin–streptomycin (Gibco) at a final concentration of 220,000 cells/mL and dispensed into white 96-well plates at 90 μL/well. Subsequent transfections and screens were carried using an Agilent Bravo Automated Liquid Handling Platform. First, the 96-well HiBiT DNA arrays were diluted 25-fold in Opti-MEM (without serum or phenol red) to a final concentration of 0.0004 μg/μL and 20 μL of the diluted DNAs were transferred into new 96-well plates. Next, promoterless carrier DNA (1 μg/μL) was diluted 25-fold (0.04 μg/μL) and then dispensed into the diluted arrays at 20 μL/well. Following brief mixing, Viafect transfection reagent (Promega) diluted 16-fold into Opti-MEM was dispensed into the plates at 40 μL/well. After mixing by pipetting, plates were incubated for 10 min on the pipetting station deck. The DNA-transfection reagent complexes were then added to plates containing cells. To facilitate the screen, 10 μL of DNA-transfection reagent complexes were added in duplicates to the top 4 and bottom 4 rows, resulting in two identical 48-well arrays per plate. Plates with transfected cells were incubated for 18–20 h at 37 °C/5% CO2. A screen of each tracer across the entire library using two different concentrations requires duplicate plates of transfected cells. Depending on the number of tracers being screened, transfections can be scaled up using the same ratios. The next day, for each tracer, four 20× screening solutions in tracer dilution buffer (Promega) were prepared: two duplicates at final concentration of 20 μM and two duplicates at a final concentration of 2 μM. A competing unmodified compound was added to one of each duplicate at a final concentration of 400 μM. The four resulting solutions were diluted 4-fold in Opti-MEM without serum or phenol red to generate 5× solutions (5 µM and 0.5 µM tracer +/− 100 μM competing compound). To screen the library, a BioTek MultiFlo FX liquid dispenser was used to dispense 22.5 µL of tracer solution to the top 4 rows and 22.5 µL tracer + competing compound solution to the 4 bottom rows. Plates were briefly mixed on an orbital shaker and incubated for 1.5 h at room temperature. […]
# HTR1B = target: T2, HTR1B (Homo sapiens, UniProt P28222); assay: NanoBRET screen HiBiT-HTR1B in HEK293
# T2 construct: purchased Promega (in-house HiBiT-GPCR construct library, NanoBRET)
# Experimental: as §1, §2
# GRM1 = target: T3, GRM1 (Homo sapiens, UniProt Q13255); assay: NanoBRET screen HiBiT-GRM1 in HEK293; settings: GRM1
# T3 construct: purchased Promega (in-house HiBiT-GPCR construct library, NanoBRET)
# Experimental: as §1, §2
# GALR1 = target: T4, GALR1 (Homo sapiens, UniProt P47211); assay: NanoBRET screen HiBiT-GALR1 in HEK293
# T4 construct: purchased Promega (in-house HiBiT-GPCR construct library, NanoBRET)
# T4 sequence (P47211 1-349): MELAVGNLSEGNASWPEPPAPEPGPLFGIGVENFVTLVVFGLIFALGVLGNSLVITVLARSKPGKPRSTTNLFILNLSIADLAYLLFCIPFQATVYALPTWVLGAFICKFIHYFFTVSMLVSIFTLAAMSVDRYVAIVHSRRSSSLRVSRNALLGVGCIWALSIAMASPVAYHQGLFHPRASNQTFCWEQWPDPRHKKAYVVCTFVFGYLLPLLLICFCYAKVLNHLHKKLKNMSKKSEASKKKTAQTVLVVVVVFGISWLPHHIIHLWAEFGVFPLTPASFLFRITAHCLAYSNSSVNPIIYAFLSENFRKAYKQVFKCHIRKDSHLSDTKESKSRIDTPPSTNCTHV
# Experimental: as §1, §2
# AGTR2 = target: T5, AGTR2 (Homo sapiens, UniProt P50052); assay: NanoBRET screen HiBiT-AGTR2 in HEK293
# T5 construct: purchased Promega (in-house HiBiT-GPCR construct library, NanoBRET)
# T5 sequence (P50052 1-363): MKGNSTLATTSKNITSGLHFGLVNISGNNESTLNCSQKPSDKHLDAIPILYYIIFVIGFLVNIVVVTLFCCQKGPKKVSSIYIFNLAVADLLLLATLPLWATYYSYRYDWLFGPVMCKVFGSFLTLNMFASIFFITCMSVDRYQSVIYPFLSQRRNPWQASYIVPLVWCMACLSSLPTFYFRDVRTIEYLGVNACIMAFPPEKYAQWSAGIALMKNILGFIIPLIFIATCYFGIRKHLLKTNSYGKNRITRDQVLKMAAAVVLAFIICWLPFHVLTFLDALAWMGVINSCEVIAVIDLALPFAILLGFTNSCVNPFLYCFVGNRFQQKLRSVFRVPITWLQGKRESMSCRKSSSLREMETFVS
# Experimental: as §1, §2
# [1] = tracer at 0.1μM, listed as amitriptyline-b-2-NB590
# [2] = tracer at 1μM, listed as amitriptyline-b-2-NB590
# T3 sequence (Q13255 19-1194): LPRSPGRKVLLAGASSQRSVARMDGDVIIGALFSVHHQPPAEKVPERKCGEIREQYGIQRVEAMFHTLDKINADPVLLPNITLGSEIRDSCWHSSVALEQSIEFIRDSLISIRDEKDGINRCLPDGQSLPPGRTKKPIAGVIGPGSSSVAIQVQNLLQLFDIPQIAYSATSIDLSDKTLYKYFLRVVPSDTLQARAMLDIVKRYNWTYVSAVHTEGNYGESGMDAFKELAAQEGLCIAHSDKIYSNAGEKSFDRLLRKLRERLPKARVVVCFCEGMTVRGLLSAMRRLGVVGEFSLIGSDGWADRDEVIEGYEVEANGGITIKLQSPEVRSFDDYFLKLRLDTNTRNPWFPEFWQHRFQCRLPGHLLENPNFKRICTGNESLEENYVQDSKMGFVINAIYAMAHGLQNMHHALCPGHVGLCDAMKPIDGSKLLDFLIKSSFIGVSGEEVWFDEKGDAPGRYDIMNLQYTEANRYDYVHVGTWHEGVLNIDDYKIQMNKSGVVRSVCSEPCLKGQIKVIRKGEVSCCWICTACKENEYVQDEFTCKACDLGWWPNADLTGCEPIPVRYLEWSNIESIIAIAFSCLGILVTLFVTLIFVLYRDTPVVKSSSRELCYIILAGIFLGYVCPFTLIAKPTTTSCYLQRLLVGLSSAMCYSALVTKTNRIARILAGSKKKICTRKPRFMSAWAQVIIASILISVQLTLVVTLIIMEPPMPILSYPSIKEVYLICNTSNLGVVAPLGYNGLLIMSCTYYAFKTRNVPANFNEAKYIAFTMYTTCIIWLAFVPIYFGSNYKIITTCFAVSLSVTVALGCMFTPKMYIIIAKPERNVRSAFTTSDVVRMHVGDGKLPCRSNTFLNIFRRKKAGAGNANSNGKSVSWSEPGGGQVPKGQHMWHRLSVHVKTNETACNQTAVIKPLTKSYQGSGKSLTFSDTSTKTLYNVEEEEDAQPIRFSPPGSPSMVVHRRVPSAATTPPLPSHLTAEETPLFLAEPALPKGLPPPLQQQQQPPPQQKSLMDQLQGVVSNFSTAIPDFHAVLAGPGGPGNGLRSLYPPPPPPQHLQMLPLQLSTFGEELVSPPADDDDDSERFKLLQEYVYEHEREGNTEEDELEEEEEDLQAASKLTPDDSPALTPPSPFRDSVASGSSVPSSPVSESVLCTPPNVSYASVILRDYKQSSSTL
# T2 sequence (P28222 whole entry): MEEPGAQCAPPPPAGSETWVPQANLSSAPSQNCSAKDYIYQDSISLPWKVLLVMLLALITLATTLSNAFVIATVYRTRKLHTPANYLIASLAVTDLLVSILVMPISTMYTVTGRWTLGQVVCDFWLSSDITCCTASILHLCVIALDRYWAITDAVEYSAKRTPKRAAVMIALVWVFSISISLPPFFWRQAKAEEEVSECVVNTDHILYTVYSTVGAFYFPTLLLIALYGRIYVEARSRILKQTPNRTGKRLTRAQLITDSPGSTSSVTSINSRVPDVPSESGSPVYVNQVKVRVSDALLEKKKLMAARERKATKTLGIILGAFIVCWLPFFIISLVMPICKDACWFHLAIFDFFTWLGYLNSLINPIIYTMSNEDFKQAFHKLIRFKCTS
Structure (SMILES),"NanoBRET Fold Response (FPR3; FPR3, tracer 0.1μM)","NanoBRET Fold Response (FPR3; FPR3, tracer 1μM)","NanoBRET Fold Response (HTR1B; HTR1B, tracer 0.1μM)","NanoBRET Fold Response (HTR1B; HTR1B, tracer 1μM)",NanoBRET Fold Response (GRM1; tracer 0.1μM),NanoBRET Fold Response (GRM1; tracer 1μM),"NanoBRET Fold Response (GALR1; GALR1, tracer 0.1μM)","NanoBRET Fold Response (GALR1; GALR1, tracer 1μM)","NanoBRET Fold Response (AGTR2; AGTR2, tracer 0.1μM)","NanoBRET Fold Response (AGTR2; AGTR2, tracer 1μM)",also measured
N#CN=C(NCCCOc1cccc(CN2CCCCC2)c1)NCCNC(=O)CCOCCOCCOCCOCCNC(=O)CCc1ccc2n1[B-](F)(F)[N+]1=C(c3ccc[nH]3)C=CC1=C2 [Aminopotentidine-2-NB590],1.21,1.13,0.98,1.03,0.59,0.94,1.02,0.99,0.98,1.04,
CN(C)CCC=C1c2ccccc2CCc2ccc(C(=O)NCCNC(=O)CCOCCOCCOCCOCCNC(=O)CCc3ccc4n3[B-](F)(F)[N+]3=C(c5ccc[nH]5)C=CC3=C4)cc21 [Amitriptyline-b-2-NB590],,,,,0.77,0.97,,,,,NanoBRET Fold Response (FPR3; [1]): 1.27; NanoBRET Fold Response (FPR3; [2]): 1.02; NanoBRET Fold Response (HTR1B; [1]): 1.76; NanoBRET Fold Response (HTR1B; [2]): 1.34; NanoBRET Fold Response (GALR1; [1]): 0.98; NanoBRET Fold Response (GALR1; [2]): 1.03; NanoBRET Fold Response (AGTR2; tracer at 0.1μM): 0.84; NanoBRET Fold Response (AGTR2; [2]): 0.87
COc1ccccc1N1CCN(CCCCN2C(=O)c3ccc(CNC(=O)CCOCCOCCOCCOCCNC(=O)CCc4ccc5n4[B-](F)(F)[N+]4=C(c6ccc[nH]6)C=CC4=C5)cc3C2=O)CC1 [NAN-190-2-NB590],1.00,0.74,1.73,1.25,0.35,0.92,1.02,,1.02,0.98,
O=C(CCOCCOCCOCCOCCNC(=O)CCc1ccc2n1[B-](F)(F)[N+]1=C(c3ccc[nH]3)C=CC1=C2)NCCCN1CCN(C2=Nc3ccccc3Oc3ccc(Cl)cc32)CC1 [Loxapine-a-2-NB590],1.02,1.07,2.42,2.84,0.93,0.59,1.03,1.21,1.00,1.01,
CCCn1c(=O)c2[nH]c(-c3ccc(OCC(=O)NCCNC(=O)CCOCCNC(=O)c4ccc(CNC(=O)CCc5ccc6n5[B-](F)(F)[N+]5=C(c7ccc[nH]7)C=CC5=C6)cc4)cc3)nc2n(CCC)c1=O [XAC-3-NB590],0.78,1.04,0.66,1.24,0.63,0.80,1.02,1.04,1.24,1.09,
CCOC(=O)c1cc(C#N)c(N2CCC(C(=O)NS(=O)(=O)Cc3ccccc3/C=C/C(=O)NCCNC(=O)CCc3ccc4n3[B-](F)(F)[N+]3=C(c5ccc[nH]5)C=CC3=C4)CC2)nc1C [AZD1283-1-NB590],,,,,,,,,,,"NanoBRET Fold Response (FPR3; FPR3, 0.1μM): 1.08; NanoBRET Fold Response (FPR3; FPR3, 1μM): 1.06; NanoBRET Fold Response (HTR1B; HTR1B, 0.1μM): 0.89; NanoBRET Fold Response (HTR1B; HTR1B, 1μM): 0.99; NanoBRET Fold Response (GRM1; 0.1μM): 1.28; NanoBRET Fold Response (GRM1; 1μM): 0.71; NanoBRET Fold Response (GALR1; GALR1, 0.1μM): 1.03; NanoBRET Fold Response (GALR1; GALR1, 1μM): 1.09; NanoBRET Fold Response (AGTR2; AGTR2, 0.1μM): 1.13; NanoBRET Fold Response (AGTR2; AGTR2, 1μM): 1.17"
